Results on one molecule are retold here after US9765039B2, “Biaryl derivatives as bromodomain inhibitors” (Zenith Epigenetics Ltd., priority 2012, dated 2017).

The target of data set [1] is T1, Brd4 bromodomain 1 (Homo sapiens, UniProt O60885).
T1 construct: made in house; host or cells: E. coli BL21(DE3)
As to the kind of experiment: Inhibition of tetra-acetylated histone H4 binding to BET bromodomains (TR-FRET). Details: key: Active: Compounds with an IC50 value less than 30 μM were deemed to be active.; Not Active: Compounds with an IC50 value less than 30 μM were deemed to be active. The settings on record: first bromodomain of Brd4, tetra-acetylated histone H4 peptide. The essentials:
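TR-FRET with N-terminally His-tagged bromodomains (200 nM, E. coli-expressed, Ni affinity and SEC-purified) and biotinylated tetra-acetylated histone H4 peptide (25–50 nM), detected with Eu-cryptate streptavidin and XL665 anti-His antibody. Buffer 30 mM HEPES pH 7.4, 320 mM KF, 0.08% BSA, 0.2% DMSO; 2 h RT. IC50 from decrease in 665/620 nm ratio.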
For orientation: Time-resolved FRET reads energy transfer from a long-lived donor to a nearby acceptor.

The test system of data set [2] is Human AML MV-4-11 cells. As to the kind of experiment: Inhibition of cell proliferation in cancer cell lines (CellTiter Aqueous One). The format is cell-based. Set-up: key: Active: Compounds with an IC50 value less than 30 μM were deemed to be active.; Not Active: Compounds with an IC50 value less than 30 μM were deemed to be active. The conditions noted are these: 72 hours. The method, boiled down:
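Exponentially growing MV-4-11 cells were treated immediately with two-fold compound dilutions from 30 µM to 0.2 µM in triplicate for 72 h at 37 °C. Viability was read by MTS (CellTiter Aqueous One) absorbance at 490 nm after 3-4 h; % proliferation vs DMSO gave IC50.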

Data set [3] deals with hIL-6 mRNA. Briefly: Inhibition of hIL-6 mRNA transcription in LPS-stimulated U937 macrophages. Format: cell-based, human. Details: key: Active: Compounds with an IC50 value less than 30 μM are deemed to be active. The conditions noted are these: U937 differentiated into macrophages, 1 h pretreatment, lipopolysaccharide 3 h. The essentials: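 U937 cells differentiated 3 days with 60 ng/mL PMA, pretreated 1 h with compound, then stimulated with […] E. coli LPS for 3 h at 37° C. hIL-6 mRNA quantified by one-step real-time RT-PCR, Ct normalised to internal control and expressed as fold induction relative to control.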

For data set [4], the system named is arthritic rats. As to the kind of experiment: In vivo efficacy in rat collagen induced arthritis. Details: species or system female Lewis strain of rats. The conditions noted are these: collagen Day 1 and 7, dosed Day 11 to Day 17. On the procedure:
Rat collagen-induced arthritis is an experimental model of polyarthritis that has been widely used for preclinical testing of numerous anti-arthritic agents. Following administration of collagen, this model establishes a measurable polyarticular inflammation, marked cartilage destruction in association with pannus formation and mild to moderate bone resorption and periosteal bone proliferation. In this model, collagen was administered to female Lewis strain of rats on Day 1 and 7 of study and dosed with compounds from Day 11 to Day 17. Compounds were evaluated to assess the potential to inhibit the inflammation (including paw swelling), cartilage destruction and bone resorption in arthritic rats, using a model in which the treatment is administered after the disease has been established.

Take `COc1cc(OC)c2c(=O)[nH]c(-c3ccc(OCCNC(C)C)c(-c4ccc([S+](C)[O-])cc4)n3)nc2c1` (centres unmarked) [Example 41, 2-(5-(2-(Isopropylamino)ethoxy)-6-(4-(methylsulfinyl)phenyl)pyridin-2-yl)-5,7-dimethoxyquinazolin-4(3H)-one]: the melting point fell in the range of 93 to 95 °C. Besides, the “FRET activity (IC50 < 30 μM)” value in data set [1] was “Active”. The “cell proliferation activity (IC50 < 30 μM)” value in data set [2] was “Active”. The “IL-6 activity (IC50 < 30 μM)” value in data set [3] is listed as “Active”. In data set [4], the “In vivo Activity” value was “Active”.

What is called melting point is the temperature of the solid-liquid transition.
